Measured values from patent US8048880B2, “Treatment of cardiovascular disease and dyslipidemia using secretory phospholipase A2 (SPLA2) inhibitors and SPLA2 inhibitor combination therapies” (Anthera Pharmaceuticals, Inc., priority 2007, dated 2011).

What was measured:
[1] = test system: ApoE−/− mice; assay: Plasma total cholesterol and HDL levels in ApoE−/− mice, A-002 and/or statin (Example 3); type: in vivo; conditions: alone or plus 0.02 g/kg pravastatin, 12 weeks
Description: (§1) Body weight, plasma total cholesterol, and plasma HDL levels were measured for six groups of twelve ApoE^−/− mice. The mice were then placed on a high fat diet for twelve weeks to allow for formation of significant fatty atherosclerotic plaques. The high fat diet was a modified version of the Western diet (TD.88137, Harlan Teklad, Madison, Wis.) consisting of casein (195 g/kg), DL-methionine (3 g/kg), sucrose (341.44 g/kg), corn starch (150 g/kg), anhydrous milkfat (210 g/kg), cholesterol (1.5 g/kg), cellulose (50 g/kg), mineral mix AlN-76 (Teklad; 35 g/kg), calcium carbonate (4 g/kg), vitamin mix (Teklad #40060; 10 g/kg), ethyoxyquin (antioxidant, 0.04 g/kg), and either 0.0156 g/kg (“low dose”) A-002 (Group A), 1.56 g/kg (“high dose”) A-002 (Group B), 0.02 g/kg pravastatin (Group C), low dose A-002 plus 0.02 g/kg pravastatin (Group D), high dose A-002 plus 0.02 g/kg pravastatin (Group E), or vehicle only (Group F). Mice were administered diets A-F in a blinded manner, and food was provided ad libitum. The diet was initially prepared based on the assumption that each mouse weighed 22.5 g and ate 4.5 g/day. Based on body weight and food consumption, the diet was modified over the 12 week course of treatment to adjust for a body weight of 26 g and a food intake of 2.5 g/day. The dosages of A-002 were selected to cover a range of 100-fold based on pharmacokinetics in ApoE^−/− mice as well as toxicology and previously observed efficacy in this model.
Plasma total cholesterol and HDL levels were measured. Mean levels of total cholesterol were decreased in mice administered A-002 alone or in combination with statin (Table 3, FIG. 6). […] Mean levels of HDL were increased in mice administered A-002 at either dosage (Table 4). This increase was greater in mice administered high dose A-002 plus statin than in mice administered high dose A-002 or statin alone (Table 4 compare Group E vs. Groups B and C; FIG. 7).

[2] = test system: sPLA2; assay: Serum sPLA2 concentration in humans, A-002 twice a day (Example 4); type: in vivo, human; conditions: ITT population, week 8
Description: (§2) 204 human subjects from the United States with CVD, specifically stable coronary artery disease, were randomized to receive placebo or A-002 via oral administration twice a day over an eight week administration period at dosages of 50 mg, 100 mg, 250 mg, or 500 mg. Levels of various lipids and inflammatory markers were measured at the outset of the trial and at the end of weeks four and/or eight. For data sets with a normal distribution, mean levels of lipids or inflammatory markers were analyzed. For data sets with non-normal distribution, median levels were analyzed. […] In addition, administration of A-002 decreased median levels of CRP (Table 11).

[3] = test system: ApoE−/− mice; assay: En face lesion size in ApoE−/− mice on high fat diet, A-002 and/or statin (Example 3); type: in vivo; conditions: alone or plus 0.02 g/kg pravastatin, 12 weeks
Description: as §1
After twelve weeks, mice were sacrificed and plasma, heart tissue, and aortic tissue were collected. En face lesion size was determined via digital imaging analysis. Plaque content (as measured as en face lesion) was reduced in mice administered A-002 alone, statin alone, or A-002 in combination with statin. The reduction in plaque content in mice administered A-002 plus statin was substantially greater than the reduction in mice administered either compound alone (Table 2, compare Group D vs. Groups A and C; Group E vs. Groups B and C). Further, the reduction in plaque content in mice administered A-002 plus statin was substantially greater than the sum of the reduction in plaque content in mice administered A-002 alone and mice administered statin alone.

[4] = test system: ApoE−/− mice; assay: Plasma total cholesterol levels in ApoE−/− mice on high fat diet (Example 1); type: in vivo; conditions: at 16 weeks
Description: Male ApoE^−/− mice were fed a high fat diet (21% fat, 0.15% cholesterol, 19.5% casein) ad libitum for two weeks in order to acclimate to the diet. Plasma cholesterol levels and body weight were measured in order to obtain baseline levels, and mice were randomized into three groups of 20 mice based on these measurements. After the acclimation period, mice remained on the high fat diet and were administered A-002 (30 mg/kg or 90 mg/kg) or vehicle only (5% acacia) twice a day for 16 weeks by oral gavage.
Plasma cholesterol levels and body weight were measured at 4, 8, 12, and 16 weeks after the start of A-002 administration. Comparisons of measurements between test and control mice at each time period were performed using a two-way analysis of variance test (ANOVA) for repeated measures, followed by post-hoc Bonferroni test for significance.

[5] = test system: CRP; assay: Serum CRP concentration in humans, A-002 twice a day (Example 4); type: in vivo, human; conditions: week 8
Description: as §2
Serum TG, CRP, and IL-6 levels were measured at eight weeks in 86 subjects from the ITT population diagnosed with metabolic syndrome.

[6] = test system: CRP; assay: Serum CRP concentration in humans, A-002 once a day (Example 6); type: in vivo, human; conditions: week 8
Description: 135 human subjects over the age of 18 with CVD, specifically stable CAD, were randomized to receive either placebo or one of two dosages (250 mg or 500 mg) of A-002 via once a day oral administration over an eight week time period. 89 of the subjects received A-002, while 46 of the subjects received placebo. Subjects that were receiving statins or other compounds used in the treatment of CVD at the outset of the trial continued to receive those therapeutics throughout the trial. 121 of the 135 subjects were on statins during the trial. There was little variation between dosage groups with respect to age, height, weight, or BMI.
Levels of various lipids and inflammatory markers were measured at the outset of the trial and at weeks two, four, and/or eight weeks after the start of A-002 administration. In addition, plasma A-002 levels were measured at various intervals. Lipids that were measured included LDL, small LDL particle, oxidized LDL, non-HDL cholesterol, total cholesterol, ApoB, and triglycerides. In addition, levels of the inflammatory marker CRP were measured. Lipid and inflammatory marker levels at each timepoint were compared to the baseline measurements to determine the effect of A-002 administration. For data sets with a normal distribution, mean levels of lipids or inflammatory markers were analyzed. For data sets with non-normal distribution, median levels were analyzed. LDL particle size was also assessed.

[7] = high dose A-002 (1.56 g/kg diet)
[8] = low dose A-002 (0.0156 g/kg diet)
[9] = metabolic syndrome subpopulation
[10] = statin subpopulation with baseline serum LDL greater than 70 mg/dl

For CCc1c(C(=O)C(N)=O)c2c(OCC(=O)OC)cccc2n1Cc1ccccc1 [A-002, [[3-(2-Amino-1,2-dioxoethyl)-2-ethyl-1-(phenylmethyl)-1H-indol-4-yl]oxy]acetic acid methyl ester], the “Mean HDL concentration” value [1, 7] was 17.167 mg/dL, the “Mean total cholesterol concentration” value [1, 7] was 1301.750 mg/dL and the “Mean HDL concentration” value [1, 8] was 21.000 mg/dL. For the same compound, the “Mean total cholesterol concentration” value [1, 8] was 1355.545 mg/dL, the “% change vs. baseline (median [sPLA2])” value [2] was −86.96% and the “Change in median [sPLA2] vs. baseline” value [2] was -2.00 ng/mL. For the same compound, the “Change in mean % en face lesion vs. control” value [3, 7] was −4.158%, the “Mean % en face lesion” value [3, 7] was 1.469% and the “Change in mean % en face lesion vs. control” value [3, 8] was −2.241%. For the same compound, the “Mean % en face lesion” value [3, 8] was 3.386%, the “change from baseline in total cholesterol” value ([4]; 30 mg/kg A-002 twice a day) was −10% and the “change from baseline in total cholesterol” value ([4]; 90 mg/kg A-002 twice a day) was −12%. The “% change vs. baseline (median [CRP])” value [5, 9] was −12.50%, the “Change in median [CRP] vs. baseline” value [5, 9] was -0.3 mg/L and the “% change vs. baseline (median [CRP])” value ([5]; serum, ITT population) was −13.33%. For the same compound, the “Change in median [CRP] vs. baseline” value ([5]; serum, ITT population) was -0.20 mg/L, the “% change vs. baseline (median [CRP])” value ([6]; ITT population) was “+5.4%” and the “% change vs. baseline (median [CRP])” value [6, 10] was “+9.1%”. For the same compound, the “Change in median [CRP] vs. baseline” value [6, 10] was “+0.10 mg/L”, the “% change vs. baseline (median [CRP])” value ([6]; statin subpopulation) was “+8.7%” and the “Change in median [CRP] vs. baseline” value ([6]; statin subpopulation) was “+0.10 mg/L”.
